Assay results from publication PMC12733451, “A Novel RANKL/RANK Inhibitor IMB-R38 Inhibits Osteoporosis Through Regulating Bone Metabolism” (International Journal of Molecular Sciences, 2025).

Target: T1, RANK (Mus musculus, UniProt O35305)
T1 construct: gene Tnfrsf11a; extracellular segment of RANK (amino acid 26–210), His-RANK fusion expressed in E. coli
T1 sequence (O35305 26-210): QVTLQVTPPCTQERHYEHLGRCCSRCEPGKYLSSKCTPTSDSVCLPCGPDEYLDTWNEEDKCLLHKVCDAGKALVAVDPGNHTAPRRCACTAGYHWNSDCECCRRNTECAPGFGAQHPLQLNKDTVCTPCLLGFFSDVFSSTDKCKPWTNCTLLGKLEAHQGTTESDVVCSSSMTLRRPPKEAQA
Assay: SPR on immobilized RANK; supported by CETSA in RAW264.[…] cells
Assay type: binding

Structure (SMILES): O=C(Nc1ccc(N2CCCCC2)cc1)c1ccccc1O [IMB-R38, 2-hydroxy-N-(4-(piperidin-1-yl)phenyl)benzamide]
- Kd: 945 µM
